Results as given in patent US12208227B2, “Precision bio-chemotronic system” (THE REGENTS OF THE UNIVERSITY OF MICHIGAN, priority 2017, dated 2025).
≈ marks a conversion by molar mass, not a printed value. One block for each molecule: values may come before it.

How the values were obtained:
[1] = Dissolution of printed films versus original loose powders; assay type: physicochemical
Source text: (§2) Drug dissolution was monitored by in-situ UV-VIS Ocean Optics USB+2000 spectrometer with T300-UV-VIS transmission dip probe, with a 10 mm optical path.
(§3) For dissolution from film, the glass substrate with printed film was attached to rotating rod with substrate holder. In case of compressed powder pellet, 1.57 mm diameter pellet was compressed at 50±2 psi for approximately 10 seconds into a holder having same size as disk substrate holder. […] In all cases the same vessel and solution volume of 10 ml was used. Testing temperature was room temperature−20±1° C. Sink conditions were defined as C<5Cs.
As-received API powders having the same weight as the films were introduced into 10 ml solutions without any prior treatment, and stirred using a rotation rod with the same shape and diameter as the one used for film dissolution.

[2] = Intrinsic dissolution rate, rotating disk dissolution apparatus; assay type: physicochemical; settings: films comparable to compressed pellets, 100 rpm, 10 ml, 20±1° C.
Source text: as §2
Dissolution Rate Measurement
as §3
To measure dissolution kinetics, a rotating disk dissolution apparatus (see FIG. 30 for details) was used with rotational speed of 100 rpm. Concentration was monitored using a UV-VIS spectrometer equipped with a dip probe. The compounds were tested both in powder form (compressed into pellets for rotating disk dissolution) and in film form. […]
[formula] where m is the dissolved solute mass, and (dm/dt)max is the maximum slope in the dissolution curve that plots the amount of dissolved material versus time, typically evaluated at the start of dissolution process, where the concentration driving force is highest. […]

physchem = settings: 20 °C, pH 1.2, simulated gastric fluid, thermodynamic from solid
Protocol: Solubility tests were performed at ambient temperature (20±1° C.). Solutions with excess concentration (at least 100 μg/ml of solid) were shaken at approximately 1,000 rpm for 48 hours, followed by solution filtration with 0.4 μm filter after 24 hrs. Filtered solutions concentrations were then measured using UV-VIS spectrometry, calibrated with known solutions concentrations. Five different concentrations for calibration were used in each test.
Solution volume remained constant in all experiments, 10 ml, and temperature was 20±1° C.

[3] = test system: MCF7 cells (breast carcinoma); experiment: Cancer cell growth/viability, live cell counts by trypan blue exclusion; assay type: cell-based
Protocol: (§1) The cells were plated onto 12-well tissue culture dishes, and allowed to adhere and grow for 24 hours in 2.5 ml of 10% fetal bovine serum-supplemented growth medium. […] Slides were removed following this initial period, and live cell counts were determined using trypan blue exclusion using a hemocytometer at 1, 4, 8, 12, 24 and 48 hours following film treatment. At least 3 samples were tested at each time point.

[4] = test system: OVCAR3 cells (ovarian carcinoma); experiment: as above; assay type: cell-based
Protocol: as §1

[5] = film form, nominal 5 μM (4.5 μg per film)
[6] = powder form in growth medium, nominal 5 μM

Structure (SMILES): Cn1c(=O)c2c(ncn2C)n(C)c1=O [Caffeine]
- dissolution in the film form (qualitative) ([1]; film form): instantaneous dissolution

- intrinsic dissolution rate (IDR) ([2]; aqueous HCl buffer pH 1.2): 1·10^−3±3·10^−4 μg sec^−1 mm^−2
- enhancement of initial dissolution rate, film-form versus loose powder ([1]; aqueous HCl buffer pH 1.2, 70 μg weight, 10 ml): thirty-fold
- solubility at 48 h (physchem): 22.5 ± 0.5 µg/mL (≈ 109 µM)
Structure (SMILES): CC(C)Cc1ccc(C(C)C(=O)O)cc1 (stereo not drawn) [ibuprofen]

- intrinsic dissolution rate (IDR) ([2]; aqueous acetate buffer pH 4.9): 6.10^−4±1·10^−4 μg sec^−1 mm^−2
Structure (SMILES): CC/C(=C(\c1ccccc1)c1ccc(OCCN(C)C)cc1)c1ccccc1 [tamoxifen]
- cancer cells' viability after 48 hours [3, 5]: 58%
- cancer cells' viability after 48 hours [3, 6]: 79%
- cancer cells' viability after 48 hours [4, 5]: 44%
- cancer cells' viability after 48 hours [4, 6]: 68%
